Measurements from the supplement of paper PMC10307832.

What was measured:
Test in all cases: relative viability (nuclei count vs DMSO), 5 days (fraction); higher = more cells survive
[1] = compound: O=C(Nc1cc(C(F)(F)F)cc(C(F)(F)F)c1)c1cc(Cl)ccc1O [IMD-0354] + CC(=O)Nc1cccc(-n2c(=O)n(C3CC3)c(=O)c3c(Nc4ccc(I)cc4F)n(C)c(=O)c(C)c32)c1 [Trametinib] (partner 0.02 µM)
How it was run: (§1)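 After 5 days of treatment, lung cancer cells in 1536-well plates were fixed and stained in a single step (final 0.05% Triton X-100, 1% formaldehyde, 1 ug/ml Hoechst) and their nuclei counted on 4× images. Treatment had been applied by pin tool the day after seeding as one drug alone or as a fixed anchor-drug dose with five library-drug doses (not always all listed) in √10 steps. Relative viability is the nuclei count of treated wells divided by that of vehicle wells, and values are medians of duplicate plates.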

[2] = compound: O=C(Nc1cc(C(F)(F)F)cc(C(F)(F)F)c1)c1cc(Cl)ccc1O [IMD-0354] + Nc1ncn([C@H]2C[C@H](O)[C@@H](CO)O2)c(=O)n1 [Decitabine] (partner 2 µM)
How it was run: as §1

[3] = compound: Cc1cnc(CNC(=O)c2c(=O)c3ccc(N4CCCN(C)CC4)nc3n3c2sc2ccccc23)cn1 [CX-5461] + CCNC(=O)c1noc(-c2cc(C(C)C)c(O)cc2O)c1-c1ccc(CN2CCOCC2)cc1 [Luminespib] (partner 0.01 µM)
How it was run: as §1

[4] = compound: O=C(Nc1cc(C(F)(F)F)cc(C(F)(F)F)c1)c1cc(Cl)ccc1O [IMD-0354] + C[C@]1(O)C[C@@H](c2nc(-c3ccc4ccc(-c5ccccc5)nc4c3)c3c(N)nccn32)C1 [Linsitinib] (partner 1 µM)
How it was run: as §1

Row | Cell Line | relative viability ([1]; first compound 0.04 µM) | relative viability ([1]; first compound 0.1265 µM) | relative viability ([1]; first compound 0.4 µM) | relative viability ([1]; first compound 1.265 µM) | relative viability ([1]; first compound 4 µM) | relative viability ([2]; first compound 0.04 µM) | relative viability ([2]; first compound 0.1265 µM) | relative viability ([2]; first compound 0.4 µM) | relative viability ([2]; first compound 1.265 µM) | relative viability ([2]; first compound 4 µM) | relative viability ([3]; first compound 0.01 µM) | relative viability ([3]; first compound 0.03162 µM) | relative viability ([3]; first compound 0.1 µM) | relative viability ([3]; first compound 0.3162 µM) | relative viability ([3]; first compound 1 µM) | relative viability ([4]; first compound 0.04 µM) | relative viability ([4]; first compound 0.1265 µM) | relative viability ([4]; first compound 0.4 µM) | relative viability ([4]; first compound 1.265 µM) | relative viability ([4]; first compound 4 µM)
1 | LU99A | 0.434 | 0.475 | 0.442 | 0.505 | 0.206 | 0.565 | 0.885 | 0.539 | 0.617 | 0.293 | 0.187 | 0.218 | 0.235 | 0.241 | 0.242 | 0.553 | 0.527 | 0.398 | 0.452 | 0.147
2 | LXF-289 | 0.721 | 0.62 | 0.643 | 0.5 | 0.207 | 0.375 | 0.312 | 0.393 | 0.356 | 0.201 | 0.627 | 0.798 | 0.823 | 0.732 | 0.662 | 1.04 | 0.932 | 0.768 | 0.459 | 0.108
3 | NCI-H522 | 0.749 | 0.778 | 0.732 | 0.6 | 0.454 | 0.748 | 0.659 | 0.615 | 0.57 | 0.428 | 1.49 | 1.22 | 1.98 | 1.05 | 1.08 |  |  |  |  | 
4 | NCI-H1299 |  |  |  |  |  |  |  |  |  |  |  |  |  |  |  | 0.933 | 0.895 | 0.839 | 0.168 | 0.158
5 | NCI-H1563 |  |  |  |  |  |  |  |  |  |  | 0.47 | 0.595 | 0.438 | 0.565 | 0.498 | 1.25 | 1.06 | 1.11 | 0.784 | 0.457
6 | NCI-H1623 |  |  |  |  |  |  |  |  |  |  | 0.528 | 0.542 | 0.515 | 0.536 | 0.51 |  |  |  |  | 
7 | NCI-H1648 | 0.435 | 0.504 | 0.369 | 0.545 | 0.271 | 0.526 | 0.475 | 0.401 | 0.374 | 0.272 |  |  |  |  |  |  |  |  |  | 
8 | NCI-H1650 | 0.568 | 0.558 | 0.479 | 0.131 | 0.254 | 0.378 | 0.455 | 0.285 | 0.203 | 0.129 | 0.181 | 0.161 | 0.211 | 0.215 | 0.193 |  |  |  |  | 
9 | NCI-H1703 |  |  |  |  |  |  |  |  |  |  |  |  |  |  |  | 1.38 | 0.583 | 0.888 | 0.125 | 0.141
10 | NCI-H2170 | 1.03 | 0.909 | 0.562 | 0.897 | 0.481 | 0.467 | 0.457 | 0.37 | 0.443 | 0.396 | 0.636 | 0.54 | 1.02 | 0.771 | 0.554 |  |  |  |  | 
11 | NCI-H2228 | 0.472 | 0.454 | 0.43 | 0.171 | 0.232 |  |  |  |  |  | 0.148 | 0.147 | 0.196 | 0.172 | 0.101 | 0.563 | 0.795 | 0.544 | 0.167 | 0.409
12 | NCI-H2342 | 0.763 | 0.743 | 0.731 | 0.77 | 0.565 | 0.728 | 0.707 | 0.601 | 0.656 | 0.5 | 0.778 | 0.653 | 0.657 | 0.761 | 0.693 |  |  |  |  | 
13 | SW 900 | 0.711 | 0.639 | 0.599 | 0.154 | 0.212 | 0.432 | 0.414 | 0.397 | 0.208 | 0.213 | 0.171 | 0.162 | 0.19 | 0.18 | 0.176 |  |  |  |  | 
